From US9198916B1, “Compounds and methods for treating tumors” (B&G Partners, LLC, priority 2014, dated 2015) come the findings set out here.

Data set [1] is described as follows: Repeated dose intraperitoneal (IP) BID study in mice, plasma concentration by LC-MS/MS and PK fit. Details: species or system female CD-1 mice. The following applies: female, CD-1, mouse, in vivo, fitted, repeated-dose single-compartment first-order absorption model, 10 mg/kg IP BID; for half-life: ip, 10 mg/kg. As to the method:
A total of 204.47 mg of the compound of Example 1 was weighed out in a sterile vial on an analytical balance, and a 10.22 ml volume of sterile DMSO containing 5% by volume sterile Tween 80 was added to the vial under a Class II sterile hood and mixed until fully dissolved to produce a 20 mg/ml stock solution of the compound of Example 1. The stock solution was split into 1.2 ml aliquots in sterile glass vials and stored frozen at −80° C.
Sterile 1.0 mg/ml injection solution of the compound of Example 1 was formulated in normal saline containing 4.75% DMSO and 0.25% Tween 80. A visible precipitate formed without the addition of at least 0.1% Tween 80. The injection solution was prepared by thawing one aliquot of sterile 20 mg/ml stock solution, and adding 0.526 cc of stock solution to a 10 ml sterile vial of USP 0.9% sodium chloride for injection (Hospira) to yield the desired concentrations of 1.0 mg/ml o the compound of Example 1, 4.75% DMSO, and 0.25% Tween 80. The injection solution was gently mixed until fully dissolved. […] Injection solution was stored at 4° C. for up to five days after preparation, after which it was considered expired and discarded.
A total of 16 female CD-1 mice with an age of approximately 8-10 weeks (25-30 g) were used in this repeated dosing study. Each animal was weighed on the days 1, 4, 8, 11, and 15 during treatment. A 10 mg/kg dose of the compound of Example 1 was provided by IP injection of 10 ml/kg of 1.0 mg/ml injection solution to each animal every 12.0±0.5 hr. The injection solution was removed from the refrigerator and allowed to warm at room temperature for several minutes. The septum of the injection solution was wiped with sterile alcohol, and animals received 10 ml/kg by individual insulin syringes (one syringe per animal per injection), with the injection volume calculated using the most recent weighing for each individual animal. IP injections were staggered between the left and right side of the abdomen from one dosing to the next. […] The injection solution was returned to refrigerated storage after the last animal. […]

Data set [2] concerns the target hERG (human ether-à-go-go-related gene) potassium channel current (Homo sapiens, UniProt Q12809). Nature of the data set: cell-based. The method, then:
All chemicals used in solution preparation were purchased from Sigma-Aldrich (St. Louis, Mo.) unless otherwise noted and were of ACS reagent grade purity or higher.
The duration of exposure to each test article concentration was 3 minutes.

Read-outs that look alike come from different tables or passages of the source.

Sequence of hERG (human ether-à-go-go-related gene) potassium channel current (Q12809 whole entry): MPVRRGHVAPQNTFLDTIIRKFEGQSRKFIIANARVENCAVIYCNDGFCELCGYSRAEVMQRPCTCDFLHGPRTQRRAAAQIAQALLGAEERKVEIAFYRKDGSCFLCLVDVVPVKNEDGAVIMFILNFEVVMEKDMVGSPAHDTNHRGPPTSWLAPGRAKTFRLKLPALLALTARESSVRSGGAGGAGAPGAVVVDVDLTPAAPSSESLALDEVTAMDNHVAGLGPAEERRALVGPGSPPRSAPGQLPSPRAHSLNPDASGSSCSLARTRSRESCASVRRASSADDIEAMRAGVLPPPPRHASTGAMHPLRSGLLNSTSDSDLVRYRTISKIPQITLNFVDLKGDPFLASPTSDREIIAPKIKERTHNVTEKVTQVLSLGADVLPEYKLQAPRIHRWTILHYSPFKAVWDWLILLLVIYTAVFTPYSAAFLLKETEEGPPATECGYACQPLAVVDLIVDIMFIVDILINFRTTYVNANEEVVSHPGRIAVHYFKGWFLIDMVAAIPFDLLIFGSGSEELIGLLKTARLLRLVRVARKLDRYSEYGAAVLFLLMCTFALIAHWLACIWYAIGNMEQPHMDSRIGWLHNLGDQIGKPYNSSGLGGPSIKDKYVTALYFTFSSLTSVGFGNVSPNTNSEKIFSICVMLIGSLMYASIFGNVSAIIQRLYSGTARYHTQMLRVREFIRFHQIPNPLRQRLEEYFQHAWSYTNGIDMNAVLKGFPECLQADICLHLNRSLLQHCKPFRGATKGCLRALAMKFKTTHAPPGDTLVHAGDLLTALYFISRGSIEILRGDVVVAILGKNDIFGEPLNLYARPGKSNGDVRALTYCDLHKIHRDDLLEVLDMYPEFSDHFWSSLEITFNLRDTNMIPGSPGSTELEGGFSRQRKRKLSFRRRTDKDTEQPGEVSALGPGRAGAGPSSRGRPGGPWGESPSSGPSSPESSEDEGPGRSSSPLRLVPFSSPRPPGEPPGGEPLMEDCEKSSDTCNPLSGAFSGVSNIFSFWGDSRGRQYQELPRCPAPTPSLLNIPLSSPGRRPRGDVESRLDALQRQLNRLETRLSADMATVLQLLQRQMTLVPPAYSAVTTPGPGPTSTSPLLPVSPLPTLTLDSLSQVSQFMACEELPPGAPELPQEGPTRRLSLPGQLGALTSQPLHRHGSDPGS

Take `CSc1ccc2c(c1)N(CCC1CCCCN1)c1ccccc1S2.Cl` (stereo not shown) [Example 1, 2-(methylsulfanyl)-10-[2-(piperidin-2-yl)ethyl]-10H-phenothiazine hydrochloride]: in data set [1] (read-out: apparent volume of distribution (V/F)), the Vd/F was 8 L/kg. Further, the half-life in data set [1] (read-out: absorption half-life (converted)) was 28.8 min; in data set [1] (read-out: elimination half-life (converted)), 882 min. In addition, the IC50 in data set [2] came to 1550 nM.

One may read the half-life as the time needed for the level to fall by half in the phase considered. A word on the IC50: it is the concentration that inhibits the measured activity by half.
